Measured values reported in the NIST ThermoML archive (doi:10.1021/je8007759).
± gives the expanded uncertainty stated by the source.

Assay: xn = mol fraction of the nth substance listed
Details: 313.2 K, Fluid (supercritical or subcritical phases), Pycnometric method

CC1CCC(=O)O1 (stereo not given) [γ-valerolactone] + O=C=O
mass density (8370 kPa, x1 = 0.01): 576 ± 38 kg/m3 | mass density (8370 kPa, x1 = 0.025): 726 ± 44 kg/m3 | mass density (8380 kPa, x1 = 0.01): 581 ± 33 kg/m3 | mass density (8380 kPa, x1 = 0.1): 913 ± 14 kg/m3 | mass density (8390 kPa, x1 = 0.01): 589 ± 29 kg/m3 | mass density (8410 kPa, x1 = 0.01): 592 ± 55 kg/m3 | mass density (8410 kPa, x1 = 0.025): 730 ± 29 kg/m3 | mass density (8420 kPa, x1 = 0.01): 596 ± 48 kg/m3 | mass density (8430 kPa, x1 = 0.01): 602 ± 30 kg/m3 | mass density (8440 kPa, x1 = 0.01): 606 ± 29 kg/m3 | mass density (8450 kPa, x1 = 0.025): 736 ± 22 kg/m3 | mass density (8460 kPa, x1 = 0.01): 609 ± 28 kg/m3 | mass density (8460 kPa, x1 = 0.05): 814 ± 7 kg/m3 | mass density (8470 kPa, x1 = 0.01): 612 ± 28 kg/m3 | mass density (8480 kPa, x1 = 0.01): 616 ± 28 kg/m3 | mass density (8500 kPa, x1 = 0.01): 619 ± 23 kg/m3 | mass density (8510 kPa, x1 = 0.025): 740 ± 14 kg/m3 | mass density (8520 kPa, x1 = 0.01): 623 ± 4 kg/m3 | mass density (8520 kPa, x1 = 0.1): 916 ± 6 kg/m3 | mass density (8530 kPa, x1 = 0.01): 627 ± 23 kg/m3 | mass density (8550 kPa, x1 = 0.025): 745 ± 15 kg/m3 | mass density (8560 kPa, x1 = 0.01): 630 ± 10 kg/m3 | mass density (8580 kPa, x1 = 0.01): 634 ± 18 kg/m3 | mass density (8580 kPa, x1 = 0.15): 965 ± 4 kg/m3 | mass density (8600 kPa, x1 = 0.01): 638 ± 33 kg/m3 | mass density (8620 kPa, x1 = 0.025): 750 ± 11 kg/m3 | mass density (8630 kPa, x1 = 0.01): 641 ± 16 kg/m3 | mass density (8650 kPa, x1 = 0.01): 645 ± 15 kg/m3 | mass density (8670 kPa, x1 = 0.05): 820 ± 6 kg/m3 | mass density (8680 kPa, x1 = 0.01): 649 ± 19 kg/m3 | mass density (8700 kPa, x1 = 0.025): 755 ± 12 kg/m3 | mass density (8720 kPa, x1 = 0.01): 653 ± 14 kg/m3 | mass density (8750 kPa, x1 = 0.01): 657 ± 14 kg/m3 | mass density (8760 kPa, x1 = 0.1): 920 ± 6 kg/m3 | mass density (8780 kPa, x1 = 0.01): 661 ± 14 kg/m3 | mass density (8780 kPa, x1 = 0.025): 760 ± 9 kg/m3 | mass density (8810 kPa, x1 = 0.01): 665 ± 8 kg/m3 | mass density (8850 kPa, x1 = 0.01): 669 ± 8 kg/m3 | mass density (8880 kPa, x1 = 0.025): 765 ± 9 kg/m3 | mass density (8880 kPa, x1 = 0.05): 826 ± 6 kg/m3 | mass density (8890 kPa, x1 = 0.01): 673 ± 8 kg/m3 | mass density (8940 kPa, x1 = 0.01): 677 ± 9 kg/m3 | mass density (8960 kPa, x1 = 0.025): 771 ± 10 kg/m3 | mass density (8990 kPa, x1 = 0.01): 681 ± 11 kg/m3 | mass density (9000 kPa, x1 = 0.1): 923 ± 5 kg/m3 | mass density (9040 kPa, x1 = 0.01): 686 ± 16 kg/m3 | mass density (9060 kPa, x1 = 0.025): 775 ± 6 kg/m3 | mass density (9070 kPa, x1 = 0.15): 969 ± 4 kg/m3 | mass density (9100 kPa, x1 = 0.01): 690 ± 12 kg/m3 | mass density (9150 kPa, x1 = 0.01): 694 ± 12 kg/m3 | mass density (9180 kPa, x1 = 0.025): 781 ± 9 kg/m3 | mass density (9180 kPa, x1 = 0.05): 835 ± 6 kg/m3 | mass density (9200 kPa, x1 = 0.01): 698 ± 12 kg/m3 | mass density (9280 kPa, x1 = 0.01): 703 ± 15 kg/m3 | mass density (9280 kPa, x1 = 0.1): 926 ± 6 kg/m3 | mass density (9310 kPa, x1 = 0.025): 786 ± 11 kg/m3 | mass density (9340 kPa, x1 = 0.01): 708 ± 16 kg/m3 | mass density (9430 kPa, x1 = 0.01): 712 ± 9 kg/m3 | mass density (9440 kPa, x1 = 0.05): 841 ± 5 kg/m3 | mass density (9450 kPa, x1 = 0.025): 792 ± 7 kg/m3 | mass density (9500 kPa, x1 = 0.01): 717 ± 7 kg/m3 | mass density (9550 kPa, x1 = 0.1): 929 ± 4 kg/m3 | mass density (9590 kPa, x1 = 0.01): 721 ± 11 kg/m3 | mass density (9590 kPa, x1 = 0.025): 798 ± 6 kg/m3 | mass density (9670 kPa, x1 = 0.15): 972 ± 4 kg/m3 | mass density (9680 kPa, x1 = 0.01): 727 ± 10 kg/m3 | mass density (9710 kPa, x1 = 0.05): 847 ± 5 kg/m3 | mass density (9780 kPa, x1 = 0.025): 803 ± 9 kg/m3 | mass density (9880 kPa, x1 = 0.01): 736 ± 7 kg/m3 | mass density (9880 kPa, x1 = 0.1): 932 ± 5 kg/m3 | mass density (9970 kPa, x1 = 0.025): 810 ± 6 kg/m3 | mass density (10030 kPa, x1 = 0.05): 852 ± 5 kg/m3 | mass density (10120 kPa, x1 = 0.01): 746 ± 8 kg/m3 | mass density (10180 kPa, x1 = 0.025): 815 ± 7 kg/m3 | mass density (10180 kPa, x1 = 0.1): 936 ± 4 kg/m3 | mass density (10310 kPa, x1 = 0.15): 976 ± 4 kg/m3 | mass density (10370 kPa, x1 = 0.1): 938 ± 4 kg/m3 | mass density (10390 kPa, x1 = 0.01): 755 ± 7 kg/m3 | mass density (10390 kPa, x1 = 0.05): 859 ± 5 kg/m3 | mass density (10400 kPa, x1 = 0.025): 821 ± 5 kg/m3 | mass density (10540 kPa, x1 = 0.1): 939 ± 5 kg/m3 | mass density (10620 kPa, x1 = 0.15): 978 ± 4 kg/m3 | mass density (10630 kPa, x1 = 0.025): 827 ± 4 kg/m3 | mass density (10680 kPa, x1 = 0.01): 767 ± 7 kg/m3 | mass density (10750 kPa, x1 = 0.05): 865 ± 5 kg/m3
